Reference: ChEMBL document CHEMBL4715815, “Design, synthesis and biological evaluation of 7H-pyrrolo[2,3-d]pyrimidin-4-amine derivatives as selective Btk inhibitors with improved pharmacokinetic properties for the treatment of rheumatoid arthritis” (Eur J Med Chem, 2018)
Calls of active or inactive are those of the source. No cut-off for these calls is given here.

Columns and labels:
[1] = biological target: T1, Tyrosine-protein kinase BTK (Homo sapiens, UniProt Q06187); test: Inhibition of BTK in human U2932 cells assessed as reduction in BTK Y223 phosphorylation incubated for 1 hr by Western blot analysis; assay type: cell-based; conditions: dose 0.03-10 µM
T1 sequence (Q06187 whole entry): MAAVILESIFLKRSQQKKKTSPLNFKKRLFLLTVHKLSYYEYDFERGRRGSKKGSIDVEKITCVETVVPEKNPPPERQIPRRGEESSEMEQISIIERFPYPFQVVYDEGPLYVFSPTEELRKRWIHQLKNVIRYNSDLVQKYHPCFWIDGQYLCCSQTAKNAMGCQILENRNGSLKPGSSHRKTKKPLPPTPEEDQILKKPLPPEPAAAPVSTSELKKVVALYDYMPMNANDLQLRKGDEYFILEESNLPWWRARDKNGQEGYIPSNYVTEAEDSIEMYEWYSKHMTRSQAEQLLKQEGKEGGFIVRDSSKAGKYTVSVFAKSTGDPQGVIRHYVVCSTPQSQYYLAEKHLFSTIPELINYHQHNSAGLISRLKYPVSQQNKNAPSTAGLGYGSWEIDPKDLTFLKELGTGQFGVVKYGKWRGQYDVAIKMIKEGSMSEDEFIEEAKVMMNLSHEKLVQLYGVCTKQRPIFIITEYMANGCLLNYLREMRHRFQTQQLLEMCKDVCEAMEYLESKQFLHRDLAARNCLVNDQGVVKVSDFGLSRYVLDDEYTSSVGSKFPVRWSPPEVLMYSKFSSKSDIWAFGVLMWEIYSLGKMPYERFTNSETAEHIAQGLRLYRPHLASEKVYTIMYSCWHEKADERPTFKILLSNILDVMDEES

[2] = biological target: T1, Tyrosine-protein kinase BTK; test: Inhibition of BTK in human Daudi cells assessed as reduction in PLCgamma2 Y1217 phosphorylation at 0.03 to 10 uM incubated for 1 hr by Western blot analysis; assay type: cell-based; conditions: dose 0.03-10 µM
[3] = Volume of distribution in Sprague-Dawley rat at 3 mg/kg, iv measured up to 24 hrs by LC-MS/MS analysis; assay type: ADME, organism-based; conditions: in vivo
[4] = Volume of distribution in Sprague-Dawley rat at 3 mg/kg, po measured up to 24 hrs by LC-MS/MS analysis; assay type: ADME, organism-based; conditions: in vivo
[5] = biological target: Tyrosine-protein kinase JAK2 (Homo sapiens, UniProt O60674); test: Inhibition of recombinant human JAK2 using Ulight-CAGAGAIETDKEYYTVKD as substrate incubate for 60 mins by LANCE assay
Tyrosine-protein kinase JAK2, sequence (O60674 whole entry): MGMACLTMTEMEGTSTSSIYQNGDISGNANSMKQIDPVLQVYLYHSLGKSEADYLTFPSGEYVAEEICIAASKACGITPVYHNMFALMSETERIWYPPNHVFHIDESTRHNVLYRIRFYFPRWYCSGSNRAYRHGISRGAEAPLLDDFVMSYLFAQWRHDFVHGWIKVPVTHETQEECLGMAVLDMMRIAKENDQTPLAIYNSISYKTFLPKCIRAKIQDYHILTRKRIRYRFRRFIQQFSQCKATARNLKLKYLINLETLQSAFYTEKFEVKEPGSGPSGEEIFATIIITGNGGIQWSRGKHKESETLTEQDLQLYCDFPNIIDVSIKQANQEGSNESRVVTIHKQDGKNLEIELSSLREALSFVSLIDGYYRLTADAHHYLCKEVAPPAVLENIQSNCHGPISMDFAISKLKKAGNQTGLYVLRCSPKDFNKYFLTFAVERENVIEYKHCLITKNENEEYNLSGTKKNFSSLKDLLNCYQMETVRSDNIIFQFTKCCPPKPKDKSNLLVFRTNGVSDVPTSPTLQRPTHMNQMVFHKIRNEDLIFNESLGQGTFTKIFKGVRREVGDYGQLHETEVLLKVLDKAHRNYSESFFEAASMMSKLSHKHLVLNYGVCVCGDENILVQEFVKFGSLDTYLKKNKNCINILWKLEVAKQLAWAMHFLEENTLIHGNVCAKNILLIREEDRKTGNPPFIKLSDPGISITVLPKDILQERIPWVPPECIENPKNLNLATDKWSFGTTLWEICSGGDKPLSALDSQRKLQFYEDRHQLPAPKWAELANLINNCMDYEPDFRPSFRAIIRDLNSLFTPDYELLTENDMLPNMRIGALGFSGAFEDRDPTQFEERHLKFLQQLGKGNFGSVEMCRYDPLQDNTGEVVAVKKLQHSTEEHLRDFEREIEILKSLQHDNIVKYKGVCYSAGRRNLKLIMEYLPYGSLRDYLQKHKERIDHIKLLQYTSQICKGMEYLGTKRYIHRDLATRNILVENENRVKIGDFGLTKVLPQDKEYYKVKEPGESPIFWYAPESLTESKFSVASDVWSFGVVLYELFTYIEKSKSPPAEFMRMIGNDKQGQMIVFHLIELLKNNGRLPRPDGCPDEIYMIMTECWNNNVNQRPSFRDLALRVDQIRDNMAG

[6] = biological target: Tyrosine-protein kinase CSK (Homo sapiens, UniProt P41240); test: Inhibition of CSK (unknown origin)
[7] = biological target: Mitogen-activated protein kinase kinase kinase 3 (Homo sapiens, UniProt Q99759); test: Inhibition of MEKK3 (unknown origin)
Mitogen-activated protein kinase kinase kinase 3, sequence (Q99759 whole entry): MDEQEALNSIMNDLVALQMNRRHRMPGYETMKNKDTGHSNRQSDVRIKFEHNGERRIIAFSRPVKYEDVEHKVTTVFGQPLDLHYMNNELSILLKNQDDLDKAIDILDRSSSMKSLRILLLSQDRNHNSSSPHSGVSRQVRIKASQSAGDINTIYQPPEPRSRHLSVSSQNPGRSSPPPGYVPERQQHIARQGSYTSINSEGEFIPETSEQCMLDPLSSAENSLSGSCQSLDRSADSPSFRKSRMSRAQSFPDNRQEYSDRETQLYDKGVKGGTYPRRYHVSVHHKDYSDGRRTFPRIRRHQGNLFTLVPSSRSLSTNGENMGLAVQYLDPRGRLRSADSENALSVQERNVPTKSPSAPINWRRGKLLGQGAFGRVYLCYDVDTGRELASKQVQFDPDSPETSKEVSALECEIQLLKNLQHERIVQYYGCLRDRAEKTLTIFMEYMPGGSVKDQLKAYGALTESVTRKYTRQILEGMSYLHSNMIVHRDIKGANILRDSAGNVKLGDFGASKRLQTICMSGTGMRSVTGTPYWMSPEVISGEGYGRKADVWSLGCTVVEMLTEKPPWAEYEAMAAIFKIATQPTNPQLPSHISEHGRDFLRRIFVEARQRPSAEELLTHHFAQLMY

[8] = biological target: Receptor-type tyrosine-protein kinase FLT3 (Homo sapiens, UniProt P36888); test: Inhibition of FLT3 (unknown origin)
Receptor-type tyrosine-protein kinase FLT3, sequence (P36888 whole entry): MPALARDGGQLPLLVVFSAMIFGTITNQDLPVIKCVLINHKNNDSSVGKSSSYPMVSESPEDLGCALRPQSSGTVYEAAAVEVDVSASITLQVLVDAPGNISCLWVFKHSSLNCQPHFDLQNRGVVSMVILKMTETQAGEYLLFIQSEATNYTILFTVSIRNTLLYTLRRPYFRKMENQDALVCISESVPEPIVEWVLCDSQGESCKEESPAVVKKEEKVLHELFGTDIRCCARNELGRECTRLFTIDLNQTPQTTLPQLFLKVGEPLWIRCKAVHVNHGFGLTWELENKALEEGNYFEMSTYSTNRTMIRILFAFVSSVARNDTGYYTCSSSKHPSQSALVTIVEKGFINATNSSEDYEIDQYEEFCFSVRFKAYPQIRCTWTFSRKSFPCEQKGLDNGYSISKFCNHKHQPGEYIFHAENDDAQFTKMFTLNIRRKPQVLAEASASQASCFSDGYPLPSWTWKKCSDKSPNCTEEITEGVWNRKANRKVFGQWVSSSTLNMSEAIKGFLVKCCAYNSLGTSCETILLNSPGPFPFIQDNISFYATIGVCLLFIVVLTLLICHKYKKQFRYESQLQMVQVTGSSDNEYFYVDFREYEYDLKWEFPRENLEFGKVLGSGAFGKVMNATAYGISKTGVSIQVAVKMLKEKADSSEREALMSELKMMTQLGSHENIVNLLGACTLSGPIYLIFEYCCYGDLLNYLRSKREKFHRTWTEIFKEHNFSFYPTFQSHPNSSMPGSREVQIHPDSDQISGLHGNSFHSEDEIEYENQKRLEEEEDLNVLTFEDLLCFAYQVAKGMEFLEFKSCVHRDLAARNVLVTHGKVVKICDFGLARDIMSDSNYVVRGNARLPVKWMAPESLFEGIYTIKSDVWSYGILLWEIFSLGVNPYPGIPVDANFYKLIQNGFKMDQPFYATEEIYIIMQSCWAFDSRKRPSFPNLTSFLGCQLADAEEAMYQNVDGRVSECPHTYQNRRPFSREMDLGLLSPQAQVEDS

[9] = biological target: Tyrosine-protein kinase Lck (Homo sapiens, UniProt P06239); test: Inhibition of recombinant human LCK using Ulight-Poly GAT[EAY(1:1:1)]n as substrate incubate for 10 mins by LANCE assay
[10] = biological target: Tyrosine-protein kinase Lyn (Homo sapiens, UniProt P07948); test: Inhibition of recombinant human LYN using biotinyl-beta Abeta-Abeta AKVEKIGEGTYGVVYK as substrate incubate for 120 mins by LANCE assay
Tyrosine-protein kinase Lyn, sequence (P07948 whole entry): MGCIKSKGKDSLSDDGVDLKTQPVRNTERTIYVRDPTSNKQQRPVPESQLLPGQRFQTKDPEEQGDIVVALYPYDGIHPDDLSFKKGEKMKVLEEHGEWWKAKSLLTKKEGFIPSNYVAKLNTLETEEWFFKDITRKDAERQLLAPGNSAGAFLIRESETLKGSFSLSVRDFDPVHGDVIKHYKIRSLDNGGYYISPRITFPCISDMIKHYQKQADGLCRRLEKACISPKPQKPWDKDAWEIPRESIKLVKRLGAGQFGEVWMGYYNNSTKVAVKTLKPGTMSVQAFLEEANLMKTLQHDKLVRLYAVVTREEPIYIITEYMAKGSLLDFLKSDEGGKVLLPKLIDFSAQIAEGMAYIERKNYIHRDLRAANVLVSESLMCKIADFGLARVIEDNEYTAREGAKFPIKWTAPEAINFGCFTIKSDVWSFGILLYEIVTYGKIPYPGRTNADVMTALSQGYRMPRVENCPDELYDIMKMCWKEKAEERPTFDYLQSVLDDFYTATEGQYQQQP

[11] = biological target: Ribosomal protein S6 kinase alpha-2 (Homo sapiens, UniProt Q15349); test: Inhibition of RSK3 (unknown origin)
Ribosomal protein S6 kinase alpha-2, sequence (Q15349 whole entry): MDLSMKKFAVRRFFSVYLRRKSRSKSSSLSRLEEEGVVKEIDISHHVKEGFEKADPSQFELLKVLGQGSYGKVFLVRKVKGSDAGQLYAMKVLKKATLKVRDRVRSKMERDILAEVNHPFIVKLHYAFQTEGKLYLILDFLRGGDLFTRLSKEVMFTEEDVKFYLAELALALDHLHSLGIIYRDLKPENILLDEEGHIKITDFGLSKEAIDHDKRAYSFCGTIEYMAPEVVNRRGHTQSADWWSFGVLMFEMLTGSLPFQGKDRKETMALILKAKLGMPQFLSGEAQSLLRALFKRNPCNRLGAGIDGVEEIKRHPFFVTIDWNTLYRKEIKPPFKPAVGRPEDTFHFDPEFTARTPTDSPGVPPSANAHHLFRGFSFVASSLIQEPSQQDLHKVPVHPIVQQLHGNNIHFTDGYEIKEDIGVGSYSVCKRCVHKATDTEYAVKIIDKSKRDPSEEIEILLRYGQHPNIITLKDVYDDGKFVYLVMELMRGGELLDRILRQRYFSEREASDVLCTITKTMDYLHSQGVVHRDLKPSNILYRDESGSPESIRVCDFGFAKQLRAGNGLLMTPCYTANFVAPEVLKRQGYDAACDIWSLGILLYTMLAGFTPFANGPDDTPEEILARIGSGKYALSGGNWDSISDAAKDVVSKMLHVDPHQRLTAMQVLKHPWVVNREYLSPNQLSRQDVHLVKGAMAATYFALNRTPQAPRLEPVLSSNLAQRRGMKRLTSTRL

[12] = Toxicity in BALB/c mouse assessed as effect on heart at 2 g/kg, po measured after 7 days of administration by histopathological analysis; conditions: in vivo, 168 h
[13] = Toxicity in BALB/c mouse assessed as effect on spleen at 2 g/kg, po measured after 7 days of administration by histopathological analysis; conditions: in vivo, 168 h

SMILES: C=CC(=O)N1CCC(Cn2cc(-c3ccc4c(c3)OCO4)c3c(N)ncnc32)CC1
- inhibition [1]: Dose-dependent effect
- inhibition [2]: Active
- Vd [3]: 1.21 L/kg
- Vd [4]: 26.15 L/kg
- IC50 [5]: > 10 µM
- IC50 [6]: > 10 µM
- IC50 [7]: > 10 µM
- IC50 [8]: > 10 µM
- IC50 [9]: 0.636 µM
- IC50 [10]: 0.259 µM
- IC50 [11]: > 10 µM
- Activity [12]: Non-Toxic
- Activity [13]: Non-Toxic
